Measurements: PMC3433414, “Oral Administration of the Pimelic Diphenylamide HDAC Inhibitor HDACi 4b Is Unsuitable for Chronic Inhibition of HDAC Activity in the CNS In Vivo” (PLoS ONE, 2012)

Legend:
[1] = target: T1, HDAC3-NcoR2 (Homo sapiens, UniProt O15379); assay: Two-step fluorogenic deacetylase assay, recombinant HDAC3; type: biochemical
T1 construct: purified recombinant human full length HDAC1 (cat# 50051), HDAC2 (cat# 50052), HDAC3-NcoR2 (cat# 50003); purchased BPS Bioscience (San Diego, CA) 50003
T1 sequence (O15379 whole entry): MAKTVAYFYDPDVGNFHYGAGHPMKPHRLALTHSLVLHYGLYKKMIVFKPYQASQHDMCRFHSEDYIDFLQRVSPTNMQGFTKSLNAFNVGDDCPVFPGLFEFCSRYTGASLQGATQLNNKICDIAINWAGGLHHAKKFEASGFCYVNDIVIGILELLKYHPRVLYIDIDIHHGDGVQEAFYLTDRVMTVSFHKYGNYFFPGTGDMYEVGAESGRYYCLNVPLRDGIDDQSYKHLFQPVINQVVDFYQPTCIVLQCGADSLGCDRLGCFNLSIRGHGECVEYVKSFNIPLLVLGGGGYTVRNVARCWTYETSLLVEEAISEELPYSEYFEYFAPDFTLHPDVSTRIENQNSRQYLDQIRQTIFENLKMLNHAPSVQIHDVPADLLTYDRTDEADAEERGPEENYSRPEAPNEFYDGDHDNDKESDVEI
T1 sequence (Q9Y618 395-489 partner limits assumed): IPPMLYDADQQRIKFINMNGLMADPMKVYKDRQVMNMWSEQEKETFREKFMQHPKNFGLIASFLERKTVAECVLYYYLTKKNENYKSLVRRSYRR
Protocol: As described, the length of compound-enzyme incubation has been reported to be critical for this class of HDAC inhibitors, where a unique time-dependent increase in affinity and subsequent potency has been observed [36]–[38]. […] To better mimic physiological conditions, our experiments were performed at 37°C as opposed to room temperature as reported in previous studies. […] To confirm that this shift was independent of the time of 4b in aqueous solution, 4b was applied immediately to the enzyme-substrate mix both after preparing in aqueous buffer, and 120 min after preparation.
To assess the biochemical and cellular potency of 4b and its conversion products/metabolites, we utilized the two-step fluorogenic assay which measures the HDAC-mediated catalytic conversion of synthetic acetylated lysine substrates. In brief, on deacetylation of the substrates by HDAC activity, a protease site is unmasked which allows subsequent trypsin-mediated cleavage and release of the highly flourescent AMC molecules in a subsequent step of the assay. The substrates used were Lys_Ac_AMC (Bachem I-1875) for HDAC3 and (Ac)Arg-Gly-Lys(Ac) (Bachem I-1925) for HDAC1 and HDAC2. The final substrates used for each enzyme assessment were carefully selected after assessing the catalytic turnover of each of these substrates against HDAC1, HDAC2 and HDAC3 respectively, and selecting the ones that performed best. To assess Class IIa enzyme activity (HDAC4, 5, 7, 9) and Class I HDAC8 activity, we used the alternative substrate Boc_Lys_TFA (Bachem I-1985), equivalent to substrate 4 of [42]. Class IIa HDACs have approximately 1000-fold less catalytic activity than Class 1 enzymes, and show only extremely low turnover of acetylated substrates due to a Tyr to His mutation in the active site. However, the relatively labile and sterically more demanding trifluoracetyl group is readily hydrolyzed by the catalytically less avid Class IIa enzymes, allowing measurement of Class IIa activity using the 2-step fluorogenic assay. Intriguingly the Boc_Lys_TFA substrate seems to show almost total selectivity for Class IIa enzymes over class I and Class IIb enzymes, with the exception of HDAC8 ([42], and internal data).
For evaluation of the class selectivity of the compounds, we assessed inhibition against purified recombinant human full length HDAC1 (cat# 50051), HDAC2 (cat# 50052), HDAC3-NcoR2 (cat# 50003) and HDAC8 (cat# 50008): as representative of Class I activity; catalytic domain HDAC4(αα 648–1057), HDAC5 (αα 657–1123; cat # 50005), HDAC7 (αα 518-end; cat # 50007) and HDAC9 (αα 604–1066; cat # 50009) activity: representing all Class IIa activity; and full length HDAC6 (cat#50006): representing Class IIb activity. With the exception of purified catalytic domain HDAC4, which was prepared for us by Emerald Biosciences (Seattle, WA), all HDAC enzymes were purchased from BPS Bioscience (San Diego, CA).
Unless otherwise stated in the text, assays were run in the following format in 384-well plates using automated liquid handling procedures. Briefly, frozen enzyme stock and compounds were diluted in assay buffer (50 mM Tris-HCl, 137 mM NaCl, 2.7 mM KCl, 1 mM MgCl2 at pH 8.0) and added to plates at concentrations sufficient to achieve a 16-point concentration-response curve from 50 µM to 1 nM at 1% DMSO final concentration, after addition of all reagents. Substrate diluted in assay buffer was then added and plates were incubated after brief shaking for 60 min at 37°C. Following incubation, a developer/stop-step was introduced to terminate the reaction and cleave the fluorescent substrate: either the addition of trypsin with 10 µM Compound 26 [44] for the Class IIa enzymes, or trypsin with 5 µM Trichostatin A (TSA) for the Class I/IIb enzymes. Plates were briefly shaken and then returned to the incubator for a further 60 min, followed by measurement of fluorescence per well (Ex 355 nm, Em 460 nm) on a Perkin Elmer EnVision. […]

[2] = Chemical stability in formulation or solution; type: physicochemical; details: free base; LC-MS day 1 and after 7 days; with or without heating
Protocol: Thomas and colleagues reported that a solution of 4b at 1 mg/mL was previously obtained using this procedure. […] We therefore prepared both TFA and hydrochloride (HCl) salts of 4b to establish whether they could offer improved solubility. Neither salt form of 4b was particularly soluble in water (<1 mg/ml). […] A study of the stability of the TFA salt also raised another more worrying issue in the use of 2-hydroxypropyl-β-cyclodextrin–complexed 4b salts for potential in vivo studies. […] The 4b. […] The lower than expected initial quantification of 4b was most likely due to the TFA salt rapidly degrading upon heating. Indeed, we always found the presence of the cyclised benzimidazole conversion product, named throughout as product C1, in the salt formulations even at t = 0 after preparation. Furthermore, the suspension was not stable upon standing in the dark with gentle shaking at room temperature, with a further 28% decrease observed in parent (4b) concentration on day 7 analysis, compared to day 1.
According to Thomas et al, verification of an acute pharmacodynamic response (the reversal of transcriptional dysregulation in the R6/2 model) was achieved by the repeated once daily injection of 150 mg/kg 4b in 50∶50 DMSO: PBS for three consecutive days. […] The lack of any pharmacodynamic response predictive of central Class I HDAC inhibition when 4b was dosed orally at 150 mg/kg twice daily for 5 days confirmed this prediction.

[3] = test system: AR (h); assay: Cerep binding, agonist radioligand; design: species or system human; details: 10 μM
From the text: In addition to the HDAC profiling performed, we also queried 4b for any apparent potential off-target effects, which could complicate any finding of efficacy or adverse events in vivo due to ‘polypharmacy’. This was accomplished by screening against a ‘diversity panel’ of 72 binding and 29 enzyme assays, comprised of roughly equal numbers of selective central and peripheral therapeutically relevant targets (Cerep Diversity Profile). This panel included representative targets from diverse enzyme families, G protein coupled receptors, steroid nuclear receptors, voltage- and ligand-gated ion channels. While not totally inclusive, it is a useful tool for discovery compounds to assess their viability as proof of concept molecules to specifically query a particular target. 4b was initially screened at 10 µM in duplicate. The full set of results is provided as Table S1. […] This clean in vitro profile was considered acceptable to proceed to ADME and pharmacokinetic studies.

% inhibition of control specific binding [3] | SMILES | selectivity for HDAC3 over HDAC2 [1] | IC50 ([1]; 0 min pre-incubation with enzyme, then 60 min substrate, 37°C) | IC50 ([1]; 2 h pre-incubation with enzyme (3 h incubation in total), 37°C) | IC50 ([1]; no enzyme pre-incubation, applied 120 min after preparation in aqueous buffer) | IC50 ([1]; no enzyme pre-incubation, applied immediately after preparing in aqueous buffer) | selectivity within the Class I enzymes for HDAC3 ([1]; standard screening format) | IC50 ([1]; standard screening format, free base, DMSO stock) | degradation in cyclodextrin suspension [2]
– | Nc1ccccc1NC(=O)CCCCCC(=O)Nc1ccccc1 [Compound 4b] | ~9 fold | 650 nM | 80 nM | 650 nM | 970 nM | ~6 fold | 254 nM | no degradation
3% | O=C(CCCCCc1nc2ccccc2[nH]1)Nc1ccccc1 [Compound C1, 6-(1-H-benzo[d]imidazol-2-yl)-N-phenylhexanamide] | – | – | – | – | – | – | – | –
